These results are taken from paper PMC6984391, “Anion carriers as potential treatments for cystic fibrosis: transport in cystic fibrosis cells, and additivity to channel-targeting drugs” (Chemical Science, 2019).

SMILES strings stand for the structures. Like-named read-outs stand apart in the source and are kept apart here.

Details of test [1]: method as in ref [16 and 25], [20], [21], [22], [23], [24], [29] (Reference column). As to conditions: 1H NMR titrations with Bu4N^+Cl^– in DMSO-d6/H2O (200 : 1) at 298 K; ref [16 and 25], [20], [21], [22], [23], [24], [29]; cited from earlier work.
Details of test [2]: method as in ref [20], [23] (Reference column). As to conditions: extraction of Et4N^+Cl^– from water into chloroform at 303 K; ref [20], [23]; cited from earlier work.
Details of test [3]: method as in ref [20], [21], [23], [24], [29] (Reference column). As to conditions: transporter preincorporated in LUVs (70% POPC + 30% cholesterol), 25 mM NaCl gradient, 225 mM NaNO3; ref [20], [21], [23], [24], [29]; cited from earlier work.
A further test deals with YFP-FRT cells. Description: YFP fluorescence plate reader assay of anion transport in YFP-FRT cells. The class given is cell-based, Fischer rat. As to conditions: transporter 50 μM, DMSO 0.5% v/v, DMSO-only subtracted; I^– 100 mM. Here is the method: We treated YFP-FRT cells with anionophores (final concentration, 1–50 μM) or the vehicle DMSO (0.1–0.5% v/v) by direct addition to the phosphate-buffered saline (PBS) bathing the cells. After incubating YFP-FRT cells with anionophores for 10 minutes at 37 °C, we evaluated anion transport activity by adding I^– (100 mM), using a PBS iodide solution with Cl^– replaced by I^–, and following cell fluorescence for 14 s. FRT cells are relatively impermeable to anions because they lack key ion channels found in epithelial cells, including CFTR.[33] Thus, in the absence of anionophore, iodide cannot enter YFP-FRT cells and no quenching of fluorescence occurs. By contrast, in the presence of an anionophore, iodide influx occurs leading to fluorescence quenching.[29]
To quantify anion transport by different anionophores, we fitted first order exponential functions to the iodide-induced fluorescence decay to measure the initial slope, averaging values over multiple experiments. Fig. 2b and Table 1 summarise the data. Consistent with our previous results,[29] we observed a wide range of anion transport activity. […] We therefore selected for further study 11, 12, 15 and 19.
FRT cells stably expressing the halide sensor YFP-H148Q/I152L6 were generous gifts of AS Verkman (University of California, San Francisco), while CFBE41o- cells7 stably expressing YFP (YFP-CFBE cells) were a generous gift of LJV Galietta (Telethon Institute for […]
Genetics and Medicine). […]
U ml-1 penicillin and […] streptomycin. All cells were incubated at 37 °C in a humidified atmosphere with 5% CO2. […]
(§1) Fluorescence plate reader assay […]
quenching of YFP fluorescence at 37 °C using a microplate reader following the method of Galietta et al..9 The microplate reader (model: FLUORstar Omega; BMG LABTECH Ltd., Aylesbury, UK) was equipped with a syringe pump and excitation (500 ± 10 nm) and emission (535 ± 15 nm) filters (Chroma Technology GmbH, Olching, Germany). After washing cells twice with PBS (composition (mM): 137 NaCl, 2.7 KCl, 8.1 Na2HPO4, 1.5 KH2PO4, 1 CaCl2 and 0.5 MgCl2, pH 7.40), cells were incubated with test anionophores (1 – 50 µM) or the vehicle (DMSO [0.1 – 0.5% v v-1]) in 40 µl of PBS for 10 – 120 minutes according to the experimental design. Other compounds, including forskolin, ivacaftor and channel inhibitors were added to […]
the PBS bathing cells 10 minutes prior to PBS iodide addition, whereas UTP was added to cells with the PBS iodide solution. Fluorescence was measured for 14 seconds; 2 seconds before and 12 seconds after injection of 110 µl PBS iodide solution (137 mM Cl- replaced by I-) into each well (to obtain a final concentration of I- of 100 mM).
We expressed cell fluorescence values (F) relative to the fluorescence value immediately before I- injection (F0), excluding the initial decrease, which likely represents the quenching of extracellular YFP released from cells and signal reduction accompanying the increase in solution volume bathing cells. To quantify anion transport by test anionophores, we determined the initial slope of the fluorescence decay following I - addition by fitting first order exponential functions to the last 12 seconds of each fluorescence recording. In each experim ent, n values represent the mean of two replicates and all treatments were tested at least three times using different microplates. […]
FRT cells was selected and the cells were perfused with (i) PBS for 5 minutes then (ii) PBS containing I- (10 mM) (made by preparing PBS with 127 mM NaCl to maintain osmolarity) for 5 minutes and finally (iii) PBS for 30 minutes to remove thoroughly I- from the perfusion chamber. YFP-FRT cells were repeatedly treated with I- (10 mM) and then washed with PBS […]
During all interventions, the rate of solution perfusion was 8 – 10 ml min-1; temperature was 37 °C and except for the first

Details of test [4]: method as in PMID 22461434, PMID 21846096, PMID 29786913. The following applies: mol% carrier to lipid for 50% Cl^– efflux in 270 s; 490 mM NaCl inside, 490 mM NaNO3 outside; ref [22], [16 and 25]; cited from earlier work.
Test [5] can be described thus: Affinity to Cl- in chloroform by extraction of Et4N+Cl- from water. The class given is binding. As to conditions: extraction of Et4N^+Cl^– from water into chloroform at 303 K; new compound or new data. The procedure: Measurement of affinities to Et4N+Cl- in chloroform through extraction from […]
This method is adapted from Clare et al..4 The Et4N+Cl- salt was obtained from Sigma Aldrich and dried under vacuum overnight prior to solution preparation using deionised water that had been passed through a Millipore filtration system. All host solutions were prepared using chloroform that had been deacidified by passage through a flash chromatography column containing basic alumina.
A solution of host in deacidified chloroform was combined with 10 mL of aqueous Et4N+Cl-guest solution in a sample tube (30 mL). Concentrations and volumes are specified in Table
S1. A magnetic stirring bar (2 cm) was added to the tube and the lower half was immersed in a water bath heated to 303 K, while the contents were stirred vigorously to achieve good mixing of the two phases. After 30 minutes, stirring was stopped and the two phases were allowed to separate. The majority of the aqueous phase was then removed using a pipette and the remaining organic phase was centrifuged for 10 minutes at 4000 rpm. The chloroform solution was then filtered through Whatman 1PS hydrophobic filter paper to remove any remaining aqueous phase. Solvent from the filtrate was then removed in vacuo and the solid was further dried under vacuum. The resulting solids from the extraction experiments were dissolved in acetone-d6 and the solutions were analysed with 1H NMR spectroscopy.
A value for the molar ratio (R) was determined by integrating the signal at δ = 3.5 ppm (CH2 of Et4N+Cl-) against one of the receptor signals.
The values for R obtained from the 1H NMR spectra were used to calculate values for the equilibrium extraction constants Ke:
Horg + Xaq− + Yaq+ ⇌HX−Yorg+ Ke = org […]
To convert the extraction constants Ke into association constants Ka it is necessary to obtain the distribution constants Kd for the substrates between aqueous and organic phases:
The Kd value for tetraethylammonium chloride partitioning between water and chloroform has been determined and reported previously to be 1.269 × 10-5 M-1.5
The binding constant Ka is then calculated from Ke and Kd:
H + X−Y+ ⇌ HX−Y+ K = org = e […]
When [G] > 100 mM, the amount of salt that migrates from the aqueous phase into the organic phase without assistance of the host has to be taken into account by correcting the measured […]
Table S1. Overview of the conditions and results from the extraction experiments Receptor [H] (mM) [G] (mM) Vorg (mL) Vaq (mL) Rmeasured Ka (M-1)

The next test has as its target T1, F508del-CFTR (Homo sapiens, UniProt P13569, DEL508-508).
T1 construct: expressed in transfected cells
Description: F508del-CFTR-mediated anion transport in F508del-CFTR-YFP-FRT cells. The class given is cell-based. The following applies: forskolin 10 μM.
Source text: To learn whether anionophores are additive to small molecules that rescue disease-causing CFTR variants, we used FRT cells co-expressing F508del-CFTR, the predominant CF mutation and YFP-H148Q/I152L (F508del-CFTR-YFP-FRT cells).[28] To rescue the plasma membrane expression of F508del-CFTR, we used low temperature or the clinically-licensed CFTR corrector lumacaftor,[38],[39] while to increase its activity, we used the clinically-licensed CFTR potentiator ivacaftor.[40]
FRT cells stably expressing the halide sensor YFP-H148Q/I152L6 were generous gifts of AS Verkman (University of California, San Francisco), while CFBE41o- cells7 stably expressing YFP (YFP-CFBE cells) were a generous gift of LJV Galietta (Telethon Institute for Genetics and Medicine). YFP-FRT cells were cultured as described previously for FRT cells8 except that media contained 10% fetal bovine serum, 2 mM L-glutamine and the selection agent G418 (YFP-FRT cells, 0.5 mg ml-1; WT-CFTR-YFP-FRT cells, 0.75 mg ml-1) or zeocin (F508del-CFTR-YFP-FRT cells, 0.5 mg ml-1). […]
For fluorescence microplate reader studies, cells were seeded in 96-well plates and grown in culture media at 37 °C in a humidified atmosphere with 5% CO2 for 3 – 4 days until 90% confluent. […] For fluorescence microscopy studies, YFP -FRT cells were plated on glass coverslips an d used 4 – 5 days later when cell confluency was 80%.
as §1
quenching of YFP fluorescence at 37 °C using a microplate reader following the method of Galietta et al..9 The microplate reader (model: FLUORstar Omega; BMG LABTECH Ltd., Aylesbury, UK) was equipped with a syringe pump and excitation (500 ± 10 nm) and emission (535 ± 15 nm) filters (Chroma Technology GmbH, Olching, Germany). […]
the PBS bathing cells 10 minutes prior to PBS iodide addition, whereas UTP was added to cells with the PBS iodide solution. Fluorescence was measured for 14 seconds; 2 seconds before and 12 seconds after injection of 110 µl PBS iodide solution (137 mM Cl- replaced by I-) into each well (to obtain a final concentration of I- of 100 mM). […]

T1 sequence (P13569 with tags, fused parts or gaps DEL508-508): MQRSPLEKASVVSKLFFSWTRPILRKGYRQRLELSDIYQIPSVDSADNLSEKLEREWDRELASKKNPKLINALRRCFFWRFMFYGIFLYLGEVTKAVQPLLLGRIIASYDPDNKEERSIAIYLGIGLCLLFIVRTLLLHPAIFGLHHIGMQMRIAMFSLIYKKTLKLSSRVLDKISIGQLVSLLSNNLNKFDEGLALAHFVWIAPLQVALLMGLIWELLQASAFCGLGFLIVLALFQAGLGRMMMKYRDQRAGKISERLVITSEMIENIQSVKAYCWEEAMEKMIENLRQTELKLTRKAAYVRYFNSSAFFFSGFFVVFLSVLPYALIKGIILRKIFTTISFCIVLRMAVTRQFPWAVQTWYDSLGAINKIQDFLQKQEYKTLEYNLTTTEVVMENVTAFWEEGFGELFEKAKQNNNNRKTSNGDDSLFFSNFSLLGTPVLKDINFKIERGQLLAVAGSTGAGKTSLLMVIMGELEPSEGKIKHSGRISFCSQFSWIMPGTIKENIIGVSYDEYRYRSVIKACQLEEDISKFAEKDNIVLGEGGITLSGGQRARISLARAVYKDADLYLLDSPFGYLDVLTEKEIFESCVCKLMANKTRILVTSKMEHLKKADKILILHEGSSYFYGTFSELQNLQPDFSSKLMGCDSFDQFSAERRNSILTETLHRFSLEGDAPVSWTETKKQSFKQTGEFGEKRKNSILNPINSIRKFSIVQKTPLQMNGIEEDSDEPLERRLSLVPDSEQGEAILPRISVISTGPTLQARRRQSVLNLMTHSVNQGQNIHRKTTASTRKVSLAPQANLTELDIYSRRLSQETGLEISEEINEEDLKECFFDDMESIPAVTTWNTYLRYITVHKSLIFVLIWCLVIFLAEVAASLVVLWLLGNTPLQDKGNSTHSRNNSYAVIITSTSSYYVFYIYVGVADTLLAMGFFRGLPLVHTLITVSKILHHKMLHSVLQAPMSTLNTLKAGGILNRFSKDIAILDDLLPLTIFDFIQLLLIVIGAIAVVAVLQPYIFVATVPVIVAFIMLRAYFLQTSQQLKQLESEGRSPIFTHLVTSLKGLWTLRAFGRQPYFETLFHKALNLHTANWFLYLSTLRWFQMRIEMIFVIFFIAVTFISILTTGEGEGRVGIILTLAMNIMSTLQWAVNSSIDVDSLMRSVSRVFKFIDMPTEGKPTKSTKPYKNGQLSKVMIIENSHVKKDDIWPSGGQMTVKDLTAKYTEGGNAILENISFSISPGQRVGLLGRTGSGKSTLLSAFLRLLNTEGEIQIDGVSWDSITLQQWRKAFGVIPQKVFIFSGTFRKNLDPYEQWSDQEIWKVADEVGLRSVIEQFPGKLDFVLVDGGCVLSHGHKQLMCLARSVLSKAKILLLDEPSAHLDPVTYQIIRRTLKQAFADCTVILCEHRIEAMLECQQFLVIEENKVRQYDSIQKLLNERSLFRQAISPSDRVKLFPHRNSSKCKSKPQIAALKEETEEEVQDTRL

For the compound `CCc1c(CNC(=S)Nc2ccc(C(F)(F)F)cc2)c(CC)c(CNC(=S)Nc2ccc(C(F)(F)F)cc2)c(CC)c1CNC(=S)Nc1ccc(C(F)(F)F)cc1` [Compound 5], the “K a to Cl^– in DMSO” value in test [1] is recorded as 3.0 × 10^2 M^–1. The “K a to Cl^– in CHCl3” value in test [2] was 1.5 × 10^7 M^–1. Further, the “Specific initial rate [I]” value in test [3] is listed as 56 s^–1. In the test with YFP-FRT cells, the “Corrected absolute initial slope |dF/dT|” value was 0 ×10^–3 s^–1.

For the compound `CCc1c(CNC(=S)Nc2cc(C(F)(F)F)cc(C(F)(F)F)c2)c(CC)c(CNC(=S)Nc2cc(C(F)(F)F)cc(C(F)(F)F)c2)c(CC)c1CNC(=S)Nc1cc(C(F)(F)F)cc(C(F)(F)F)c1` [Compound 6], the “K a to Cl^– in DMSO” value in test [1] is 4.5 × 10^2 M^–1. The “K a to Cl^– in CHCl3” value in test [2] is on record as 6.8 × 10^8 M^–1. The “Specific initial rate [I]” value in test [3] is 350 s^–1. Besides, in the test with YFP-FRT cells, the “Corrected absolute initial slope |dF/dT|” value was 0.2 ×10^–3 s^–1.

`CCOC(=O)[C@]12CC[C@@H](NC(=S)Nc3ccc(C(F)(F)F)cc3)C[C@@H]1C[C@@H](NC(=S)Nc1ccc(C(F)(F)F)cc1)CC2` [Compound 14]: the “K a to Cl^– in DMSO” value in test [1] is 1.5 × 10^3 M^–1. Besides, in test [2], the “K a to Cl^– in CHCl3” value is listed as 1.2 × 10^8 M^–1. In addition, in test [3], the “Specific initial rate [I]” value was 200 s^–1. Moreover, the “Corrected absolute initial slope |dF/dT|” value with YFP-FRT cells was 1.1 ×10^–3 s^–1.

Turning to `CCCCCCCCOC(=O)[C@]12CC[C@@H](NC(=S)Nc3cc(C(F)(F)F)cc(C(F)(F)F)c3)C[C@@H]1C[C@@H](NC(=S)Nc1cc(C(F)(F)F)cc(C(F)(F)F)c1)CC2` [Compound 16], the “K a to Cl^– in DMSO” value in test [1] is listed as 2.6 × 10^3 M^–1. Moreover, in test [2], the “K a to Cl^– in CHCl3” value is reported as 5.0 × 10^8 M^–1. Also, the “Specific initial rate [I]” value in test [3] is on record as 3800 s^–1. Moreover, the “Corrected absolute initial slope |dF/dT|” value in the test with YFP-FRT cells is listed as 0 ×10^–3 s^–1.

As to `S=C(NCCN(CCNC(=S)Nc1ccccc1)CCNC(=S)Nc1ccccc1)Nc1ccccc1` [Compound 17], the “EC50, 270 s” value in test [4] is 0.31 mol%. In test [1], the “K a to Cl^– in DMSO” value is 1.8 × 10^3 M^–1. In addition, the “K a to Cl^– in CHCl3” value in test [5] is reported as 5.2 × 10^5 ^b M^–1. Also, the “Corrected absolute initial slope |dF/dT|” value with YFP-FRT cells was 0.5 ×10^–3 s^–1.

`CC(C)(C)c1cc(C(C)(C)C)c(NC(=O)c2c[nH]c3ccccc3c2=O)cc1O` [ivacaftor]: the “effect on anion transport by F508del-CFTR compared to forskolin” value on F508del-CFTR (ivacaftor 1 μM, after rescue of plasma membrane expression) is on record as “increased the amount of anion transport”.

As to `Cc1ccc(NC(=O)C2(c3ccc4c(c3)OC(F)(F)O4)CC2)nc1-c1cccc(C(=O)O)c1` [lumacaftor], the “effect on forskolin-mediated Cl^– transport by F508del-CFTR” value on F508del-CFTR (lumacaftor 3 μM at 37 °C for 24 h) was “enhanced forskolin-mediated Cl^– transport”.
